Results published in paper PMC9412022, “Integrate thermostabilized fusion protein apocytochrome b 562 RIL and N-glycosylation mutations: A novel approach to heterologous expression of human UDP-glucuronosyltransferase (UGT) 2B7” (Frontiers in Pharmacology, 2022).
Substitutions are numbered along the chain they refer to.

How the values were obtained:
[1] = target: T1, UGT2B7 (N315A)-BRIL (Homo sapiens, UniProt P16662, N315A); test: Surface plasmon resonance binding to purified UGT2B7 (N315A)-BRIL; settings: SPR, 25°C, Biacore T200, CM7 chip, steady-state affinity model
T1 construct: we selected the full-length UGT2B7 (N315A)-BRIL construct with BRIL covalently attached to the C-terminus of UGT2B7; made in house; host or cells: Spodoptera frugiperda Sf9 insect cells (Bac-to-Bac baculovirus)
T1 sequence (P16662 24-529 N315A): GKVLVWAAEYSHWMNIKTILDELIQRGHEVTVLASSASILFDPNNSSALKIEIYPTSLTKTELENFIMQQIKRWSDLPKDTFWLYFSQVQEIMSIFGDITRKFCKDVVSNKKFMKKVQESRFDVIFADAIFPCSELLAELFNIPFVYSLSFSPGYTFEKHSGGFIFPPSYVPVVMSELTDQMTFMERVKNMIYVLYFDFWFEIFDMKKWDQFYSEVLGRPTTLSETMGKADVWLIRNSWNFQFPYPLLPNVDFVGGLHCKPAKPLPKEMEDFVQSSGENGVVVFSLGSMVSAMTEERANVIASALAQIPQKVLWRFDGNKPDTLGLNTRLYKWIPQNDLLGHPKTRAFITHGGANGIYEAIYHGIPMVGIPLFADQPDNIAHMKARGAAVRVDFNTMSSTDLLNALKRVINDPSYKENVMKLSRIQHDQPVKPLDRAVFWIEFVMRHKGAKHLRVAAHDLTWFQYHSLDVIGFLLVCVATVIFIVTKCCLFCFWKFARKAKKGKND
Procedure: All experiments were performed with a running buffer containing phosphate buffer (pH 7.4), 0.002% LMNG, and 0.0002% CHS to maintain the concentration of detergent above the critical micelle concentration, which is necessary for the formation of micelles and the correct folding of the purified UGT2B7 proteins. About 8,500 response units of 6 × His-tag monoclonal antibody (Proteintech) were directly immobilized on the chip, which were desalted in 10 mM sodium acetate (pH 4.5). Then the purified UGT2B7 proteins flowed over the chip and coupled with the His-tag antibody at about 18,000 RU. And the blank channel was used as the negative control. Substrates or inhibitors solutions flowed over the chip at a flow rate of 30 μl/min and were contacted 120 s. Then, flowed running buffer at the same rate to dissociation 120 s. The obtained affinities data were analyzed with the BIA evaluation software using the steady-state affinity model.

[2] = target: T2, UGT2B7-BRIL (Homo sapiens, UniProt P16662); test: CPM thermostability assay (melting temperature) of UGT2B7-BRIL in the presence of compounds; type: binding; settings: apo protein Tm […]; for melting temperature (Tm) of UGT2B7-BRIL in the presence of the compound alone: CPM fluorescence, 20-95°C ramp
T2 construct: 10xHis (C); made in house; host or cells: Spodoptera frugiperda Sf9 insect cells (Bac-to-Bac baculovirus)
T2 sequence (P16662 24-529): T1 sequence (P16662 24-529 N315A) with A292N
Procedure: The gain setting was determined at the beginning of the run and the melting temperature (Tm) was calculated from the point of inflection.

[3] = tested on: purified UGT2B7 proteins; test: Glucuronidation of zidovudine by purified UGT2B7 proteins in detergent LMNG/CHS; type: in vitro ADME, human; settings: purified protein in detergent LMNG/CHS, no phospholipid bilayer

Compound | Kd [1] [µM] | melting temperature (Tm) of UGT2B7-BRIL in the presence of the compound alone [2] [°C] | glucuronidation by purified UGT2B7 proteins [3] | melting temperature (Tm) of UGT2B7-BRIL in the presence of both cofactor (UDP) and substrate ([2]; substrate + UDP) [°C]
COc1ccc([C@@H]2CC(=O)c3c(O)cc(O)cc3O2)cc1O [Hesperetin] | 49.8 |  |  | 
COc1cc2c(c(O)c1OC)-c1c(cc(OC)c(OC)c1OC)C[C@@H](C)[C@@H](C)C2 [Schisanhenol] | 17.3 |  |  | 
O=c1ccn([C@@H]2O[C@H](COP(=O)([O-])OP(=O)([O-])O)[C@@H](O)[C@H]2O)c(=O)[nH]1.[Na+].[Na+] [UDP, uridine 5′-diphosphate disodium salt] | 589 | 50.9 |  | 
Cc1cn([C@H]2C[C@H](N=[N+]=[N-])[C@@H](CO)O2)c(=O)[nH]c1=O [Zidovudine] |  | 53.2 | not observed | 61.0
